Source: PMC2362811, “In vivo efficacy of XR9051, a potent modulator of P-glycoprotein mediated multidrug resistance” (British Journal of Cancer, 1999)
Read-outs that look alike come from different tables or passages of the source.

Columns and labels:
[1] = test system: P388/DX Johnson murine leukaemia; conditions: for survival of resistant leukaemia-bearing mice, combination vs cytotoxic drug alone: days 1-5, P < 0.01; for survival, cytotoxic drug in the absence of XR9051: P388/DX Johnson-resistant leukaemia-bearing mice, cytotoxic drug alone
[2] = test system: murine and human P-gp-expressing cell lines; parameters: method as in Dale et al, 1998; conditions: co-exposure, several murine and human P-gp-expressing cell lines; ref Dale et al, 1998; cited from earlier work
[3] = Plasma levels of XR9051 after single oral dose in Balb/c mice; format: in vivo; conditions: mouse
[4] = test system: MC26 murine colon carcinoma; format: in vivo
in vivo = format: in vivo; parameters: maximum concentration in tumour tissue / maximum concentration in tumour tissue (molar) / concentrations in H69/LX4 MDR tumours over a 25 h period: unit not given here
[5] = test system: H69/LX small cell lung carcinoma xenografts; format: in vivo
[6] = Pharmacokinetics of XR9051 after single i.v. dose in Balb/c mice (plasma, liver, heart, brain; HPLC); format: in vivo, mouse; conditions: for half-life: two-compartment model
MC26 cells = experiment: In vitro sensitization of MC26 cells to doxorubicin; format: cell-based, mouse; conditions: 500 nM XR9051, in vitro (unpublished data)
[7] = test system: P388/P-sensitive murine leukaemia; experiment: In vivo efficacy, P388/P sensitive murine leukaemia model (survival); parameters: species or system mouse; conditions: for lifespan of tumour-bearing animals vs vehicle alone: vincristine 0.1 mg kg-1 i.p. days 1-5 or doxorubicin 2 mg kg-1 i.p. days 1, 4 and 7, P < 0.005
[8] = test system: 2780AD ovarian carcinoma xenografts; format: in vivo
[9] = test system: CH1/DOXr ovarian carcinoma xenografts; format: in vivo; conditions: for tumour growth rate compared with either drug alone: P < 0.01
[10] = test system: P388 cells transfected with the human MDR1 gene; conditions: ref Yang et al, 1994; cited from earlier work
P388/DX Johnson cells = conditions: the cell line used in our studies
[11] = single i.v. 20 mg kg-1, H69/LX4 SCLC xenograft-bearing athymic mice

SMILES: COc1cc2c(cc1OC)CN(CCc1ccc(NC(=O)c3cccc(/C=c4\[nH]c(=O)/c(=C/c5ccccc5)n(C)c4=O)c3)cc1)CC2 [XR9051, N-(4-(2-(6,7-dimethoxy-1,2,3,4-tetrahydro-2-isoquinolyl)ethyl)phenyl)-3-((3Z,6Z)-6-benzylidene-1-methyl-2,5-dioxo-3-piperazinylidene)methylbenzamide]
- survival, modulator alone ([1]; XR9051 alone by any route, mice bearing sensitive or resistant tumours): no effect on survival
- lifespan of resistant tumour-bearing animals ([1]; XR9051 i.p. 5, 10 and 20 mg kg-1 with vincristine 0.1 mg kg-1 i.p., dose-dependent (data not shown)): increase in lifespan
- survival of resistant leukaemia-bearing mice, combination vs cytotoxic drug alone ([1]; XR9051 i.v. 10, 20 or 40 mg kg-1 1 h before vincristine 0.1 mg kg-1 i.p.): significantly increased survival
- survival of resistant leukaemia-bearing mice, combination vs cytotoxic drug alone ([1]; XR9051 p.o. 60, 80 or 120 mg kg-1 1 h before vincristine 0.1 mg kg-1 i.p.): significantly increased survival
- toxicity of combination therapy as assessed by body weight loss ([1]; XR9051 with vincristine or doxorubicin (data not shown)): no significant increase in toxicity
- oral potency relative to i.v. administration ([1]; xenograft and murine tumour models): two- to three-fold less
- concentration that fully reverses resistance to a range of cytotoxic drugs in vitro [2]: 300 to 500 nM
- bioavailability ([3]; Balb/c, oral, p.o. 50 mg kg-1 vs i.v., mice): ~46%
- Tmax ([3]; po, p.o. 50 mg kg-1, Balb/c mice): ~3.4 h
- AUC(0-t) ([3]; po, p.o. 50 mg kg-1, Balb/c mice, read-out: AUC0-24 h): 13500 ng·h/mL
- Cmax ([3]; po, p.o. 50 mg kg-1, Balb/c mice, read-out: Cmax in plasma): 1300 ng/mL
- Cmax ([3]; po, p.o. 50 mg kg-1, Balb/c mice, read-out: Cmax in plasma (molar)): 1800 nM
- tumour growth inhibition, XR9051 alone ([4]; XR9051 alone, pilot experiments): no significant inhibitory activity
- tumour growth on day 14 compared to cytotoxic drug alone ([4]; XR9051 i.p. 20 mg kg-1 at 0 and 4 h with doxorubicin 5 mg kg i.v. at 1 h): significant (P < 0.001) inhibition of tumour growth
- body weight gain between the various groups ([4]; XR9051 i.p. or p.o. with doxorubicin): no differences in body weight gain
- tumour growth on day 14 compared to cytotoxic drug alone ([4]; XR9051 p.o. 40 mg kg-1 at 0 and 4 h with doxorubicin 5 mg kg i.v. at 1 h): significant (P < 0.001) inhibition of tumour growth
- AUC (in vivo; athymic, mouse, tumour (H69/LX4 SCLC xenograft), iv, single i.v. 20 mg kg-1, H69/LX4 tumour, read-out: AUC0- in tumour tissue): 57100 ng·h/mL
- half-life (in vivo; athymic, mouse, tumour (H69/LX4 SCLC xenograft), iv, single i.v. 20 mg kg-1, H69/LX4 tumour, read-out: apparent elimination half-life in tumour tissue (converted)): 8.79 h
- Tmax (in vivo; athymic, mouse, tumour (H69/LX4 SCLC xenograft), iv, single i.v. 20 mg kg-1, H69/LX4 tumour, read-out: time of maximum concentration in tumour tissue): 1.5 h
- concentrations in H69/LX4 MDR tumours over a 25 h period (in vivo; single i.v. 20 mg kg-1, 25 h period): 0.6-9.4
- maximum concentration in tumour tissue (in vivo; [11]): 6.94
- maximum concentration in tumour tissue (molar) (in vivo; [11]): 9.4
- potentiation of anti-tumour activity of doxorubicin ([5]; XR9051 40 mg kg-1 i.p. or p.o. with doxorubicin (2 mg kg-1), P < 0.01): significantly potentiated the anti-tumour activity
- potentiation of anti-tumour activity of vincristine ([5]; XR9051 40 mg kg-1 i.p. or p.o. with vincristine 0.5 mg kg-1 i.p., P < 0.01): significantly potentiated the anti-tumour activity
- tolerability of combination schedules ([5]; XR9051 with vincristine or doxorubicin): well-tolerated
- linearity of intravenous pharmacokinetic parameters ([6]; i.v., between 20 and 100 mg kg-1 doses (data not shown)): linear
- Vd ([6]; mouse, in vivo, iv, single i.v. 20 mg kg-1, Balb/c mice, read-out: steady-state volume of distribution): 9.6 L/kg
- Kp ([6]; mouse, iv, single i.v. 20 mg kg-1, Balb/c mice, brain, read-out: ratio between AUC for tissue:plasma, brain): 0.3
- Kp ([6]; mouse, iv, single i.v. 20 mg kg-1, Balb/c mice, heart, read-out: ratio between AUC for tissue:plasma, heart): 16.9
- Kp ([6]; mouse, iv, single i.v. 20 mg kg-1, Balb/c mice, liver, read-out: ratio between AUC for tissue:plasma, liver): 79.6
- AUC ([6]; mouse, iv, single i.v. 20 mg kg-1, Balb/c mice, plasma, read-out: AUC from time 0- for plasma): 11900 ng·h/mL
- half-life ([6]; mouse, iv, single i.v. 20 mg kg-1, Balb/c mice, brain, read-out: apparent elimination half-life in brain (converted)): 1.15 h
- half-life ([6]; mouse, iv, single i.v. 20 mg kg-1, Balb/c mice, heart, read-out: apparent elimination half-life in heart (converted)): 2 h
- half-life ([6]; mouse, iv, single i.v. 20 mg kg-1, Balb/c mice, liver, read-out: apparent elimination half-life in liver (converted)): 4.93 h
- half-life ([6]; mouse, iv, single i.v. 20 mg kg-1, Balb/c mice, plasma, read-out: apparent elimination half-life in plasma (converted)): 3.96 h
- enhancement of sensitivity of MC26 cells to doxorubicin (MC26 cells): three-fold
- survival time ([7]; P388/P-sensitive cells implanted i.p.): 12 days
- lifespan of sensitive tumour-bearing animals, co-administration with cytotoxic drug ([7]; XR9051 20 or 40 mg kg-1 i.v. with vincristine or doxorubicin): did not further increase the lifespan
- extent of reversal of resistance ([8]; XR9051 40 mg kg-1 with epirubicin, compared with sensitive 2780 tumours (Plumb et al, 1994)): full reversal of resistance
- tumour growth rate compared with either drug alone ([8]; XR9051 i.p. 20-40 mg kg-1 2 h before and after epirubicin 10 mg kg-1 i.v., P < 0.01, dose related): significantly reduced growth rate
- tumour growth rate compared with either drug alone ([9]; XR9051 10 mg kg-1 i.v. with Paclitaxel 20 mg kg-1 i.p., days 0, 2 and 4): significantly reduced tumour growth rate
- tumour growth rate compared with either drug alone ([9]; XR9051 20 mg kg-1 i.v. with etoposide 30 mg kg-1 i.p., days 0, 5 and 11): significantly reduced tumour growth rate
- tolerability of combination schedules as judged by changes in body weights ([9]; XR9051 i.v. with Paclitaxel or etoposide (data not shown)): well-tolerated

SMILES: COc1cccc2c1C(=O)c1c(O)c3c(c(O)c1C2=O)C[C@@](O)(C(=O)CO)C[C@@H]3O[C@H]1C[C@H](N)[C@H](O)[C@H](C)O1 [doxorubicin, reference compound]
- survival, cytotoxic drug in the absence of XR9051 [1]: little or no effect on survival
- lifespan of tumour-bearing animals vs vehicle alone [7]: increased the lifespan

SMILES: CC[C@]1(O)C[C@H]2CN(CCc3c([nH]c4ccccc34)[C@@](C(=O)OC)(c3cc4c(cc3OC)N(C=O)[C@H]3[C@@](O)(C(=O)OC)[C@H](OC(C)=O)[C@]5(CC)C=CCN6CC[C@]43[C@@H]65)C2)C1 [vincristine, reference compound]
- resistance factor of cell line to vincristine [10]: 22 fold
- survival, cytotoxic drug in the absence of XR9051 [1]: little or no effect on survival
- lifespan of tumour-bearing animals vs vehicle alone [7]: increased the lifespan
- resistance factor of cell line to vincristine (P388/DX Johnson cells): 70 fold
